Where “and” joins values, the source holds several entries; their conditions need not be identical. Equal entries are not always repeated.
Key:
[1] = test system: β strep grp A; assay: Broth microdilution (NCCLS guidelines), MIC; format: cell-based; settings: Table A
Procedure: (§1) The dimer product of Example 15 was obtained in powder form. A stock solution of 1280 mg/L of the dimer in dimethylsulfoxide (DMSO) was prepared and stored at room temperature in a foil-wrapped screw-capped tube (10 ml). Subsequent dilutions were prepared using cation-adjusted Mueller-Hinton broth (50 mg/L Mg). […] It was resuspended upon mixing each time an aliquot was taken from the solution.
(§2) Approximately 100 varied bacterial isolates were initially collected for screening, along with 9 ATCC organisms. Forty additional strains of Staphylococcus species were subsequently screened. All isolates were identified according to generally accepted lab protocol.
(§3) Broth microdilution was performed according to NCCLS guidelines. Microdilution panels were prepared using doubling dilutions of the dimer in ~250 μl plastic, 96-well trays. Inoculum suspension equal to a 0.5 McFarland standard were further diluted and added to the microdilution trays to achieve a final inoculum of 5×10^5 CFU/ml (5×10^4 CFU/well). Colony counts were performed to confirm the final inoculum, as well as its purity. Each strain was also tested in a growth control well containing only MHB for viability.
(§4) Microdilution trays were incubated at 35° C. in ambient air or 5% CO2 as appropriate for 16-20 hours. After incubation, the minimal inhibitory concentration (MIC) was defined as the lowest concentration of the dimer with no evidence of growth. Since 10 or more strains of most organisms were tested; a range of MICs was determined for each organism, as well as the concentration of the dimer that inhibited 50% of the strains (MIC50) and the concentration of the dimer that inhibited 90% of the strains (MIC90).
(§5) **5% lysed horse blood in MHB (cation supplemented)

[2] = test system: Strep pneumoniae; assay: Broth microdilution (NCCLS guidelines), MIC; format: cell-based; settings: Table A
Procedure: as §1, §2, §3, §4, §5

[3] = test system: Methicillin-resistant Staph aureus (MRSA); assay: Broth microdilution (NCCLS guidelines), MIC; format: cell-based, Staphylococcus aureus
Procedure: as §1, §2, §3, §4

[4] = test system: Coagulase negative Staph (Staneg); assay: Broth microdilution (NCCLS guidelines), MIC; format: cell-based, Coagulase negative staphylococci; settings: for MIC50 / MIC90 / Range of MICs: 10 strains
Procedure: as §1, §2, §3, §4

[5] = test system: MRSA; assay: Minimal bactericidal concentration (MBC), 99.9% kill; format: cell-based, Staphylococcus aureus; settings: Table F
Procedure: as §3
Various isolates were also tested for minimal bactericidal concentration (MBC) (see Tables D and F).
Subbed 50 μl of ≤5 clear wells

[6] = test system: Staph aureus; assay: Broth microdilution (NCCLS guidelines), MIC; format: cell-based, Staphylococcus aureus; set-up: MICs: unit not given beside the values; settings: for 1st MIC / 2nd MIC: Table B
Procedure: as §1, §2, §3, §4

[7] = 10 strains, 5% lysed horse blood in MHB
[8] = Table C, 10 strains, solution 14 days old
[9] = Table E, 10 strains, fresh solution
[10] = strain S. aureus 1 (line under ATCC 25923)
[11] = Table C, Pip/Taz S. aureus, 10 strains, solution 14 days old
[12] = Table C, S. aureus, 10 strains, solution 14 days old
[13] = Table E, Pip/Taz SA, 10 strains, fresh solution
[14] = Table E, S. aureus, 10 strains, fresh solution
[15] = Table G, S. aureus (2nd clinical isolate collection), 10 strains
[16] = Table G, S. aureus (pip-tazo study), 10 strains

10,10'-bis(3,6-dimethyl-5,10-dihydro-1,8-diazaanthracen-5-one) and 5,5'-bis(3,6-dimethyl-5,10-dihydro-1,8-diazaanthracen-10-one) [Example 15]
4 µg/mL: MIC ([4]; Table F, Staneg 4) | MIC50 [6, 12] | MIC ([6]; Table D, S. aureus 4) | MIC ([6]; Table D, S. aureus 10)
8 µg/mL: MIC50 [2, 7] | MIC90 [3, 9] | MIC ([3]; Table F, MRSA 2) | MIC90 ([3]; Table G, 10 strains) | MIC90 [6, 11] | MIC ([6]; Table D, S. aureus 3) | MIC ([6]; Table D, S. aureus 7)
1.0 µg/mL: MIC90 ([3]; Table A, 12 strains) | MIC90 ([6]; Table A, 12 strains) | MIC ([6]; Table A, ATCC MSSA 29213)
.5 µg/mL: MIC90 ([4]; Table G)
64 µg/mL: MIC90 [1, 7]
1 µg/mL: MIC50 ([4]; Table C, solution 14 days old) | MIC ([4]; Table D, Staneg 5) | MIC ([4]; Table D, Staneg 6) | MIC ([4]; Table D, Staneg 7) | MIC ([4]; Table D, Staneg 8) | 1st MIC ([6]; strain S. aureus 2) | 2nd MIC ([6]; strain S. aureus 2) | 1st MIC ([6]; strain S. aureus 4) | 2nd MIC ([6]; strain S. aureus 4) | 1st MIC ([6]; strain S. aureus 5) | 2nd MIC ([6]; strain S. aureus 8) | MIC50 [6, 13] | MIC90 [6, 14] | MIC ([6]; Table F, Pip/Taz S. aureus 7) | MIC ([6]; Table F, S. aureus 2) | MIC90 [6, 15] | MIC50 [6, 16]
0.5 µg/mL: MIC50 ([3]; Table A, 12 strains) | MIC ([3]; Table A, ATCC MRSA 33591) | MIC ([3]; Table F, MRSA 6) | MIC90 ([4]; Table A) | MIC90 ([4]; Table E, fresh solution) | MIC50 ([6]; Table A, 12 strains) | 1st MIC ([6]; strain S. aureus 3) | 1st MIC ([6]; strain S. aureus 7) | 2nd MIC ([6]; strain S. aureus 7) | 1st MIC ([6]; strain S. aureus 8) | MIC50 [6, 14] | MIC ([6]; Table F, S. aureus 8) | MIC50 [6, 15]
32 to 64 mg/L: Range of MICs [1, 7]
0.25 to 1.0 mg/L: Range of MICs ([3]; Table A, 12 strains)
> 16 µg/mL: MIC50 [3, 8] | MIC90 [3, 8] | MIC ([4]; Table D, Staneg 4) | MBC ([5]; MRSA 4, skipped wells)
0.25 to 1 mg/L: Range of MICs [6, 15]
.0625 to 1.0 mg/L: Range of MICs ([4]; Table A) | Range of MICs ([6]; Table A, 12 strains)
0.5 to 8 mg/L: Range of MICs ([3]; Table G, 10 strains)
2.0 µg/mL: MIC ([2]; ATCC STRPNE 49619, 5% lysed horse blood in MHB)
4 and 8: MICs ([6]; Table C, ATCC MSSA 29213, solution 14 days old, listed as Dimer, in µg/mL)
2 µg/mL: MIC50 [3, 9] | MIC ([3]; Table F, MRSA 4) | MIC50 ([3]; Table G, 10 strains) | MIC90 ([4]; Table C, solution 14 days old) | MIC ([4]; Table D, Staneg 1) | MIC ([4]; Table D, Staneg 3) | MBC ([5]; MRSA 6) | MIC50 [6, 11] | MIC ([6]; Table D, S. aureus 1) | MIC ([6]; Table D, S. aureus 6) | MIC ([6]; Table D, S. aureus 8) | MIC ([6]; Table D, S. aureus 9) | MIC90 [6, 13] | MIC ([6]; Table F, ATCC S. aureus 29213) | MIC ([6]; Table F, Pip/Taz S. aureus 1) | MIC ([6]; Table G footnote, ATCC 29213, methicillin susceptible) | MIC90 [6, 16]
1.0: MICs ([3]; Table E, ATCC MRSA 33591 (×2), fresh solution, in µg/mL)
0.25 µg/mL: MIC ([4]; Table D, Staneg 2) | MIC50 ([4]; Table E, fresh solution) | MIC ([4]; Table F, Staneg 7) | MIC50 ([4]; Table G) | 2nd MIC ([6]; strain S. aureus 6) | MIC ([6]; Table F, ATCC S. aureus 25923) | MIC ([6]; Table F, Pip/Taz S. aureus 3) | MIC ([6]; Table F, S. aureus 1) | MIC ([6]; Table G footnote, ATCC 25923, methicillin susceptible)
0.25-1: Range of MICs ([6]; Table E, S. aureus, 10 strains, fresh solution, in µg/mL)
0.125 µg/mL: MIC50 ([4]; Table A) | 2nd MIC ([6]; strain S. aureus 3) | 1st MIC ([6]; strain S. aureus 6)
0.25-2: Range of MICs ([6]; Table E, Pip/Taz SA, 10 strains, fresh solution, in µg/mL)
0.0625 to 4 mg/L: Range of MICs ([4]; Table G)
2: MICs ([6]; Table E, ATCC MSSA 29213 (×2), fresh solution, in µg/mL)
0.0625-4: Range of MICs ([4]; Table E, fresh solution, in µg/mL)
0.5-8: Range of MICs ([3]; Table E, 10 strains, fresh solution, in µg/mL)
8 and > 16: MICs ([6]; Table C, ATCC MSSA 25923, solution 14 days old, listed as Dimer)
32 µg/mL: MIC50 [1, 7] | MIC ([1]; ATCC STRA 19615, 5% lysed horse blood in MHB)
0.0625 µg/mL: MIC ([4]; Table F, Staneg 1) | MIC ([6]; Table A, ATCC MSSA 25923) | 1st MIC [6, 10] | 2nd MIC [6, 10]
8 to 32 mg/L: Range of MICs [2, 7]
16 µg/mL: MIC90 [2, 7] | MBC ([5]; MRSA 2) | MIC90 [6, 12] | MIC ([6]; Table D, S. aureus 2) | MIC ([6]; Table D, S. aureus 5)
2-8: Range of MICs ([6]; Table C, S. aureus, 10 strains, solution 14 days old, in µg/mL)
2-16: Range of MICs ([6]; Table C, Pip/Taz S. aureus, 10 strains, solution 14 days old, in µg/mL)
> 16: Range of MICs ([3]; Table C, 10 strains, solution 14 days old, in µg/mL)
8 and 16: MICs ([3]; Table C, ATCC MRSA 33591, solution 14 days old, listed as Dimer, in µg/mL)
0.25 to 2 mg/L: Range of MICs [6, 16]
0.125 and 0.25: MICs ([6]; Table E, ATCC MSSA 25923, fresh solution, listed as Dimer, in µg/mL)

From patent US5994365A, “Substituted diazaanthracene compounds having pharmaceutical utility” (Diazans Limited, priority 1998, dated 1999)
